The target of assay [1] is T1, IDO1 (A172+IFNg cells, high IDO expressing cells) (Homo sapiens, UniProt P14902).
T1 construct: A172+IFNg cells (high IDO expressing cells); endogenous in cells; host or cells: A172 cells induced with 100 ng/ml IFNγ
Kind of assay: NFK GreenScreen cell assay, inhibition of IDO in A172+IFNg cells. Type of assay: cell-based. The note with it: read-out: IDO cell Fluor EC50. An excerpt:
(§1) Cells are counted on a Vi-Cell (Beckman Coulter). […] The final DMSO concentration is 0.5%.

Assay [2] has as its target T2, TDO2 (SW48 cells, high TDO expressing cells) (Homo sapiens, UniProt P48775).
T2 construct: SW48 cells (high TDO expressing cells); endogenous in cells; host or cells: SW48 cells
Kind of assay: NFK GreenScreen cell assay, inhibition of TDO in SW48 cells. Type of assay: cell-based. As to conditions: read-out: TDO2 Cell Fluor EC50.
Source text: as §1

Among the data in patent publication US11603373B2, “TDO2 and IDO1 inhibitors” (Genentech, Inc., priority 2017, dated 2023) are EC50 values, retold here.

pEC50: −log10 of the molar value.

T1 sequence (P14902 whole entry): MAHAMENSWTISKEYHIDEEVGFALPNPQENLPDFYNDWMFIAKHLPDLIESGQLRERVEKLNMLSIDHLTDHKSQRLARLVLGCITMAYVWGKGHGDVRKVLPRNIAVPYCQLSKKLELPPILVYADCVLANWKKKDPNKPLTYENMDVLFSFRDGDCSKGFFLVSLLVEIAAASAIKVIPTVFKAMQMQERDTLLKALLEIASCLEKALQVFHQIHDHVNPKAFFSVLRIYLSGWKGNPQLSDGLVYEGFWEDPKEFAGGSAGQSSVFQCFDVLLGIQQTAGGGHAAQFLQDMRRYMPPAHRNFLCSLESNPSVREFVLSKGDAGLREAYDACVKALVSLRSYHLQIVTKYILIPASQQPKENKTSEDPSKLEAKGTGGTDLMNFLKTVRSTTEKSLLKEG
T2 sequence (P48775 whole entry): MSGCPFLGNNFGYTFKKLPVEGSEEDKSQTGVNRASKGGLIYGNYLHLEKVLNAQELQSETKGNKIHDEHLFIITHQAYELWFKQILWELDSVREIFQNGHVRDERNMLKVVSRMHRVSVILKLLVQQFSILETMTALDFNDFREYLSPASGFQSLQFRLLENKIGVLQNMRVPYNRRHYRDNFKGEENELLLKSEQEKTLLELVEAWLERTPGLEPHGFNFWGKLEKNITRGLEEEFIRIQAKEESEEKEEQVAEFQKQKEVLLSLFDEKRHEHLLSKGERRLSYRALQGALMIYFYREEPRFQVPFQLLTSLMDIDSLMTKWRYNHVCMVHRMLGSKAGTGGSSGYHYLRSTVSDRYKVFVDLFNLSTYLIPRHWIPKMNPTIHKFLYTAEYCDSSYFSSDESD

In the case of `CC(C(=O)N1CCC2(CC1)C[C@@H]([C@H]1c3ccccc3-c3cncn31)[C@H]2O)n1cncn1` (stereo partly shown) [compound 41, 1-[3-hydroxy-2-(5H-imidazo[1,5-b]isoindol-5-yl)-7-azaspiro[3.5]nonan-7-yl]-2-(1,2,4-triazol-1-yl)propan-1-one], the pEC50 (commonly the negative decadic logarithm of the EC50, by convention in mol/L) in assay [1] is 5.82; in assay [2], 5.47.
As to `CC(C)(C)OC(=O)N1CC2CCC(C1)C21C[C@H]([C@@H]2c3ccccc3-c3cncn32)[C@H]1O` (stereo partly drawn) [Example 22g, tert-butyl (2′R,3′R)-2′-hydroxy-3′-((R)-5H-imidazo[5,1-a]isoindol-5-yl)-3-azaspiro[bicyclo[3.2.1]octane-8,1-cyclobutane]-3-carboxylate], the figures for the pEC50 in assay [1] and in assay [2] were 7.39 and 6.80, respectively.
On to `N#CCS(=O)(=O)N1CCC2(CC1)CC(C1c3ccccc3-c3cncn31)C2O` (stereo not shown) [Example 21a, 2-[[3-hydroxy-2-(5H-imidazo[,5-b]isoindol-5-yl)-7-azaspiro[3.5]nonan-7-yl]sulfonyl]acetonitrile], for which the results for the pEC50 in assay [1] and in assay [2] were 6.82 and 6.74, respectively.
Consider `O=S(=O)(CF)N1CCC2(CC1)C[C@@H]([C@H]1c3ccccc3-c3cncn31)[C@H]2O` (single isomer, unassigned) [Example 8b], for which the pEC50 is 7.32 in assay [1] and 6.92 in assay [2].
The corresponding values for `CC(C)(C)OC(=O)N[C@H]1CC[C@]2(CC1)C[C@H]([C@H]1c3ccccc3-c3cncn31)[C@H]2O` (single isomer, unassigned) [Example 24i] are 6.02 and 6.59.
Take `O=C(C1CCOC1)N1CCC2(CC1)C[C@@H]([C@H]1c3ccccc3-c3cncn31)[C@H]2O` (stereo partly shown) [compound 46, [3-hydroxy-2-(5H-imidazo[1,5-b]isoindol-5-yl)-7-azaspiro[3.5]nonan-7-yl]-tetrahydrofuran-3-yl-methanone]: the pEC50 in assay [1] was 5.70; in assay [2] it was 5.62.
With `Cn1cc(CCC(=O)N2CCC3(CC2)C[C@@H]([C@H]2c4ccccc4-c4cncn42)[C@H]3O)cn1` [compound 55, 1-[3-hydroxy-2-(5H-imidazo[1,5-b]isoindol-5-yl)-7-azaspiro[3.5]nonan-7-yl]-3-(1-methylpyrazol-4-yl)propan-1-one], the pEC50 in assay [1] was 6.29; in assay [2], 6.09.
In the case of `CS(=O)(=O)N1CC2(CC(C3c4ccccc4-c4cncn43)C2O)C1` (stereo not shown) [compound 5, 6-(5H-imidazo[1,5-b]isoindol-5-yl)-2-methylsulfonyl-2-azaspiro[3.3]heptan-7-ol], the pEC50 is 6.34 in assay [1] and 6.64 in assay [2].
The corresponding values for `NS(=O)(=O)N1CC2(CC[C@H]([C@@H]3c4ccccc4-c4cncn43)[C@H]2O)C1` (single isomer, unassigned) [Example 18] are 6.24 and 6.96.
In the case of `CC(=O)N1CCC(S(=O)(=O)N2CCC3(CC2)CC(C2c4ccccc4-c4cncn42)C3O)CC1` (stereo not shown) [compound 35, 1-[4-[[3-hydroxy-2-(5H-imidazo[1,5-b]isoindol-5-yl)-7-azaspiro[3.5]nonan-7-yl]sulfonyl]-1-piperidyl]ethanone], the results for the pEC50 in assay [1] and in assay [2] were 6.85 and 6.34, respectively.
In the case of `CC(C)(C)OC(=O)N1CCC2(CC1)C[C@H](C1c3ccccc3-c3cncn31)[C@@H]2O` (single isomer, unassigned) [Example 1a], the negative logarithm of the EC50 (pEC50) in assay [1] was 5.37; in assay [2] it was 5.20.
Regarding `CC(C)(C)OC(=O)N1CC2CCC(C1)C21C[C@@H]([C@@H]2c3ccccc3-c3cncn32)[C@H]1O` (stereo partly drawn) [Example 22d, tert-butyl (2′R,3′S)-2′-hydroxy-3′-((R)-5H-imidazo[5,1-a]isoindol-5-yl)-3-azaspiro[bicyclo[3.2.1]octane-8,1′-cyclobutane]-3-carboxylate], the pEC50 in assay [1] is 5.85; in assay [2], 6.36.
The like results for `CS(=O)(=O)N1CCC2(CC[C@@H]([C@H]3c4ccccc4-c4cncn43)[C@H]2O)CC1` (single isomer, unassigned) [Example 7c] were, in that order, 6.94 and 6.88.
With `CC(C)(C)OC(=O)N1[C@@H]2CC[C@H]1C[C@]1(C[C@@H]([C@@H]3c4ccccc4-c4cncn43)[C@H]1O)C2` (single isomer, unassigned) [Example 12l], the pEC50 is 4.92 in assay [1] and 6.39 in assay [2].
The corresponding values for `Cn1cc(S(=O)(=O)N2CCC3(CC2)CC(C2c4ccccc4-c4cncn42)C3O)cn1` (stereo not shown) [compound 26, 2-(5H-imidazo[1,5-b]isoindol-5-yl)-7-(1-methylpyrazol-4-yl)sulfonyl-7-azaspiro[3.5]nonan-3-ol] are 6.96 and 6.66.
As to `N#CC1(C(=O)N2CCC3(CC2)C[C@@H]([C@H]2c4ccccc4-c4cncn42)[C@H]3O)CC1` [compound 61, 1-[3-hydroxy-2-(5H-imidazo[1,5-b]isoindol-5-yl)-7-azaspiro[3.5]nonan-7-carbonyl]cyclopropanecarbonitrile], the pEC50 in assay [1] is 6.92; in assay [2] it was 6.33.
Take `CC(C)(C)OC(=O)N[C@H]1CC[C@]2(CC1)C[C@H]([C@H]1c3ccccc3-c3cncn31)[C@@H]2O` (single isomer, unassigned) [Example 24n]: the negative logarithm of the EC50 (pEC50) in assay [1] is 6.62; in assay [2], 5.96.
Consider `Cc1cc(CC(=O)N2CCC3(CC2)C[C@@H]([C@H]2c4ccccc4-c4cncn42)[C@H]3O)no1` [compound 54, 1-[3-hydroxy-2-(5H-imidazo[1,5-b]isoindol-5-yl)-7-azaspiro[3.5]nonan-7-yl]-2-(5-methylisoxazol-3-yl)ethanone], for which the pEC50 in assay [1] is 6.62; in assay [2] it was 6.43.
On to `Cn1ccc(S(=O)(=O)N2CCC3(CC2)CC(C2c4ccccc4-c4cncn42)C3O)n1` (stereo not shown) [compound 44, 2-(5H-imidazo[1,5-b]isoindol-5-yl)-7-(1-methylpyrazol-3-yl)sulfonyl-7-azaspiro[3.5]nonan-3-ol], for which the pEC50 is 7.09 in assay [1] and 6.55 in assay [2].
Consider `O=C(OCC(F)F)N1CCC2(CCC(C3c4ccccc4-c4cncn43)C2O)CC1` (single isomer, unassigned) [compound 60, 2,2-difluoroethyl 1-hydroxy-2-(5H-imidazo[5,1-a]isoindol-5-yl)-8-azaspiro[4.5]decane-8-carboxylate], for which the negative logarithm of the EC50 (pEC50) in assay [1] was 7.40; in assay [2] it was 7.25.
For `CC(C)(C)OC(=O)N1[C@@H]2CC[C@H]1C[C@@]1(C[C@H]([C@H]3c4ccccc4-c4cncn43)[C@H]1O)C2` (single isomer, unassigned) [Example 12f], the figures for the pEC50 in assay [1] and in assay [2] were 5.72 and 4.96, respectively.
In the case of `CC(C)(C)OC(=O)N[C@H]1CC[C@@]2(CC1)C[C@H](C1c3ccccc3-c3cncn31)[C@H]2O` (stereo partly drawn) [Example 24k, tert-butyl ((1S,2S,4s,7R)-1-hydroxy-2-((S)-5H-imidazo[5,1-a]isoindol-5-yl)spiro[3.5]nonan-7-yl)carbamate], the pEC50 in assay [1] was 5.30; in assay [2], 4.85.
The like results for `CS(=O)(=O)N1CC2(CCC(C3c4ccccc4-c4cncn43)C2O)C1` (single isomer, unassigned) [compound 16, 6-(5H imidazo[5,1-a]isoindol-5-yl)-2-(methylsulfonyl)-2-azaspiro[3.4]octan-5-ol] were, in that order, 6.66 and 7.02.
Take `NC(=O)N1CCC(C(=O)N2CCC3(CC2)CC(C2c4ccccc4-c4cncn42)C3O)CC1` (stereo not shown) [compound 66, 4-[3-hydroxy-2-(5H-imidazo[1,5-b]isoindol-5-yl)-7-azaspiro[3.5]nonane-7-carbonyl]piperidine-1-carboxamide]: the figures for the pEC50 in assay [1] and in assay [2] were 4.89 and 4.85, respectively.
The like results for `CC(C)(C)OC(=O)N1[C@@H]2CC[C@H]1C[C@@]1(C[C@@H]([C@H]3c4ccccc4-c4cncn43)[C@@H]1O)C2` (single isomer, unassigned) [Example 12h] were, in that order, 5.15 and 4.89.
With `Cc1cc(CC(=O)N2CCC3(CC2)CC(C2c4ccccc4-c4cncn42)C3O)on1` (stereo not shown) [compound 63, 1-[3-hydroxy-2-(5H-imidazo[1,5-b]isoindol-5-yl)-7-azaspiro[3.5]nonan-7-yl]-2-(3-methylisoxazol-5-yl)ethanone], the values for the pEC50 in assay [1] and in assay [2] were 6.80 and 6.51, respectively.
For `O=C(CN1CCCC1=O)N1CCC2(CC1)C[C@@H]([C@H]1c3ccccc3-c3cncn31)[C@H]2O` [compound 52, 1-[2-[3-hydroxy-2-(5H-imidazo[1,5-b]isoindol-5-yl)-7-azaspiro[3.5]nonan-7-yl]-2-oxo-ethyl]pyrrolidin-2-one], the values for the pEC50 in assay [1] and in assay [2] were 5.41 and 5.43, respectively.
As to `O=C(C1CCC1)N1CCC2(CC1)C[C@@H]([C@H]1c3ccccc3-c3cncn31)[C@H]2O` [compound 48, cyclobutyl-[3-hydroxy-2-(5H-imidazo[1,5-b]isoindol-5-yl)-7-azaspiro[3.5]nonan-7-yl]methanone], the pEC50 was 6.46 in assay [1] and 6.14 in assay [2].
The corresponding values for `CC(C)(C)OC(=O)N[C@H]1CC[C@@]2(CC1)C[C@@H]([C@H]1c3ccccc3-c3cncn31)[C@@H]2O` (single isomer, unassigned) [Example 24j] are 6.19 and 6.85.
The like results for `CS(=O)(=O)N1CCC2(CC1)C[C@@H]([C@H]1c3ccccc3-c3cncn31)[C@@H]2O` (single isomer, unassigned) [Example 6d] were, in that order, 5.03 and 6.27.
For `CP(C)(=O)N1CCC2(CC1)C[C@@H]([C@H]1c3ccccc3-c3cncn31)[C@H]2O` (single isomer, unassigned) [Example 15b], the pEC50 in assay [1] is 5.96; in assay [2], 5.82.
With `O=C(C1CC1)N1CCC2(CC1)CC(C1c3ccccc3-c3cncn31)C2O` (stereo not shown) [compound 43, cyclopropyl-[3-hydroxy-2-(5H-imidazo[1,5-b]isoindol-5-yl)-7-azaspiro[3.5]nonan-7-yl]methanone], the pEC50 in assay [1] was 6.44; in assay [2], 6.07.
